# Laboratory results taken from patent publication US20200009118A1, “COMPOSITIONS AND METHODS FOR THE TREATMENTOF NEURODEGENERATIVE AND OTHER DISEASES” (Glialogix, Inc., priority 2017, published 2020).
# System: activated astrocytes
# Assay: Astrocyte activation (anti-GFAP area fraction) in spinal cord ventral horn of SOD1 mice
# Format: in vivo, mouse
# Text: The same test mice, spinal cord preparations and methods of analysis used in the neuroinflammatory study were identical to those used in the xCT quantitation study. Two neuroinflammatory cell populations were quantitated: (1) activated microglial cells using an antibody to the F4/80 antigen, and (2) activated astrocytes, using an antibody to the GFAP antigen. For each objective image, light parameters were optimized and kept consistent across all sections. Images that were captured at 20× were then imported into ImageJ freeware (NIH, Bethesda, Md.). A maximum entropy threshold algorithm was applied to all images in a completely blinded fashion to filter out all pixels that were not stained as DAB positive. 20× images were analyzed in a blinded fashion and mean area fraction occupied by stain was tabulated. Levels of neuroinflammation in the spinal cord were assessed by measuring the area fraction of the area of the ventral horn in the spinal cord occupied by activated astrocytes or microglia. […] The samples were then incubated with the primary antibody (Anti-GFAP) purchased from Abcam (Catalog # Ab10062; Cambridge, Mass.), diluted 1:1000 in PBS overnight at 4° C. Reaction products were developed using the Vector ImmPress system (Vector Labs, Burlingame, Calif.) using an anti-mouse IgG-conjugated horseradish peroxidase.
smiles,measurement,setting,value
"O=C(O)c1cc(/N=N/c2ccc(S(=O)(=O)Nc3ccccn3)cc2)ccc1O [Sulfasalazine, 2-hydroxy-5-[(E)-2-{4-[(pyridin-2-yl)sulfamoyl]phenyl}diazen-1-yl]benzoic acid]",Decreased activation vs. vehicle treated SOD1 mice,"Cervical, day 85",No decrease
same,Decreased activation vs. vehicle treated SOD1 mice,"Cervical, day 100, listed as Sulfasalazine formulation",significantly lowered astrocyte activation
same,Decreased activation vs. vehicle treated SOD1 mice,"Cervical, day 100, listed as sulfasalazine formulation",Strong decrease (p < 0.01)
same,Decreased activation vs. vehicle treated SOD1 mice,"Combined, day 85",Decrease (p < 0.05)
same,Decreased activation vs. vehicle treated SOD1 mice,"Combined, day 100",Trend
same,Decreased activation vs. vehicle treated SOD1 mice,"Lumbar, day 85, listed as Sulfasalazine formulation",significantly lowered astrocyte activation
same,Decreased activation vs. vehicle treated SOD1 mice,"Lumbar, day 85, listed as sulfasalazine formulation",Decrease (p < 0.05)
same,Decreased activation vs. vehicle treated SOD1 mice,"Lumbar, day 100, listed as Sulfasalazine formulation",did not affect astrocyte activation
same,Decreased activation vs. vehicle treated SOD1 mice,"Lumbar, day 100, listed as sulfasalazine formulation",No decrease
same,Decreased activation vs. vehicle treated SOD1 mice,"Thoracic, day 85",Trend
same,Decreased activation vs. vehicle treated SOD1 mice,"Thoracic, day 100",No decrease
